One data set has as its target BRD4 BD2 (Homo sapiens (Human), UniProt O60885). As to the kind of experiment: Bromodomain binding assay (T7 phage display, qPCR), BRD4 BD2. The following applies: for Kd: read-out: BRD4 BD2 Kd. Here is the method:
T7 phage strains displaying bromodomains were grown in parallel in 24-well blocks in an E. coli host derived from the BL21 strain. E. coli were grown to log-phase and infected with T7 phage from a frozen stock (multiplicity of infection=0.4) and incubated with shaking at 32° C. until lysis (90-150 min). The lysates were centrifuged (5,000×g) and filtered (0.2 μm) to remove cell debris. Streptavidin-coated magnetic beads were treated with biotinylated small molecule or acetylated peptide ligands for 30 min at RT to generate affinity resins for bromodomain assays. The ligated beads were blocked with excess biotin and washed with blocking buffer (SeaBlock (Pierce), 1% BSA, 0.05% Tween 20, 1 mM DTT) to remove unbound ligand and to reduce non-specific phage binding. Binding reactions were assembled by combining bromodomains, ligated affinity beads, and test compounds in 1× binding buffer (16% SeaBlock, 0.32×PBS, 0.02% BSA, 0.04% Tween 20, 0.004% Sodium azide, 7.9 mM DTT). Test compounds were prepared as 1000× stocks in 100% DMSO and subsequently diluted 1:25 in MEG. The compounds were then diluted directly into the assays such that the final concentrations of DMSO and MEG were 0.1% and 2.4%, respectively. All reactions were performed in polypropylene 384-well plates in a final volume of 0.02 ml. The assay plates were incubated at RT with shaking for 1 hr and the affinity beads were washed with wash buffer (1×PBS, 0.05% Tween 20). The beads were then re-suspended in elution buffer (1×PBS, 0.05% Tween 20, 2 μM non-biotinylated affinity ligand) and incubated at RT with shaking for 30 min. The bromodomain concentration in the eluates was measured by quantitative polymerase chain reaction (qPCR).
An 11-point 3-fold serial dilution of each test compound was prepared in 100% DMSO at 1000× final test concentration. All compounds were distributed by acoustic transfer (non-contact dispensing) in 100% DMSO. The compounds were then diluted directly into the assays such that the final concentration of DMSO was 0.09%. Most dissociation constants were determined using a compound top concentration=10,000 nM. If the initial dissociation constant determined was <0.169 nM (the lowest concentration tested), the measurement was repeated with a serial dilution starting at a lower top concentration.
The same bromodomain assay procedure as that outlined above was used. Example compounds were screened at 30 times their Kd, and results for primary screen binding interactions are reported as ‘% Ctrl’, where lower numbers indicate stronger hits in the matrix.

For the next data set, the system named is human liver hepatocytes. As to the kind of experiment: Intrinsic clearance in human liver hepatocytes. Type of data set: in vitro ADME. The following applies: human cryopreserved hepatocytes, 0.5 μM test compound. In outline:
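Cryopreserved human hepatocytes in supplemented Williams Medium E were incubated at 37 °C, 5% CO2, with 0.5 μM compound at 0.25 million cells/mL final. Aliquots taken up to 120 min were quenched into acetonitrile and analysed by UPLC-MS/MS. Clearance came from an exponential decay fit of compound-to-internal-standard ratio over time.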

The nature of data set [1]: Solubility in topical formulations. The data set is classed as physicochemical. The settings on record: thermodynamic from solid, 5 hr at 32° C. On the procedure:
The solubilities of solid exemplary compounds were determined in a selection of solvents and solvent combinations (Transcutol, 50:50 Transcutol:water, Labrasol, propylene glycol and 1:5:4 ethanol:propylene glycol:water), after equilibration. An appropriate volume of each combination was added to a manual weighing of solid compound to provide a 20 mg/mL concentration. The resulting suspension was shaken at 1000 rpm for 5 hr at 32° C. before centrifugation at 13,000×g for 10 min to pellet any precipitate. The supernatant solution was removed and inserted into a HPLC vial and quantified by HPLC-UV against a calibration of a known concentration of the compound in DMSO.

Data set [2] in a line: Stability in human skin S9 fraction. Type of data set: in vitro ADME. The settings on record: human, human skin S9 fraction, pH 7.4; 0.3 mg/mL S9, NADPH, UDPGA, 0.5 μM compound; read-out: T1/2 (min) in human skin S9 fractions. Here is the method:
An incubation mixture was prepared containing 50 mM potassium phosphate buffer, pH 7.4), 0.3 mg/mL human skin S9 (Sekisui Xenotech), NADPH (final conc 0.8 mg/mL), UDPGA (final conc 0.16 mg/mL) and warmed to 37° C. for 5 min. The reaction was initiated upon addition of test compound (final concentration 0.5 μM). Immediately, at time zero, then at 3, 6, 15, 30, 60, 120 and 180 min, an aliquot (50 μL) of the incubation mixture was removed and mixed with acetonitrile (100 μL) to terminate the reaction. Internal standard was added to all samples, the samples centrifuged to sediment precipitated protein and the plates then sealed prior to UPLC-MS/MS analysis using a Quattro Premier XE (Waters corporation, USA).
Grafit (Erithacus Ltd) was used to calculate the exponential decay and consequently the rate constant (k) from the ratio of peak area of test compound to internal standard at each timepoint. The half life (T1/2) of each test compound was determined using the following equation: T1/2=0.693/k

Data set [3] in a line: Hydrolytic stability at a range of pHs. The data set is classed as physicochemical. The following applies: for decomposition at all pH values tested: pH 4.0, 5.5 and 7.4, text summary; for pH 4.0 % decomposition: pH 4.0 buffer; for pH 4.0 % decomposition / pH 5.5 % decomposition / pH 7.4 % decomposition: 60° C., 6 days; for pH 5.5 % decomposition: pH 5.5 buffer; for pH 7.4 % decomposition: pH 7.4 buffer. On the procedure: To test the hydrolytic stability a 1 mg/mL solution of test materials was made in DMSO (0.1% solution). To 300 μL of each solution in a HPLC vials was added 1200 μL of one of the following: pH 4.0 buffer—left at 60° C. for 5 days. Samples taken t=0 hr and 6 days pH 5.5 buffer—left at 60° C. for 5 days. Samples taken t=0 hr and 6 days pH 7.4 buffer—left at 60° C. for 5 days. Samples taken t=0 hr and 6 days A 100 μL aliquot was taken at each time point and added to 900 μL of DMSO. This sample was used to determine % decomposition.
% decomposition was measured with a Bruker MicrOTOF II focus ESI Mass Spectrometer connected in parallel to Dionex Ultimate 3000 RSLC system with diode array detector.

Where [4] appears, read: Labrasol, oil or lipid, read-out: Solubility in LB (Labrasol).
[5] abbreviates: Transcutol, organic solvent or mixture, read-out: Solubility in TC (Transcutol).
The mark [6] stands for this setting: Transcutol:water 1:1, aqueous with cosolvent or surfactant or cyclodextrin, read-out: Solubility in TC:water 1:1.
Where [7] appears, read: ethanol:propylene glycol:water 1:5:4, aqueous with cosolvent or surfactant or cyclodextrin, read-out: Solubility in EtOH:PG:water 1:5:4.
[8] abbreviates: propylene glycol, organic solvent or mixture, read-out: Solubility in PG (Propylene glycol).

This note sets out measurements from patent publication US12384777B2 (Tay Therapeutics Limited, priority 2019, dated 2025).

Where two headings read alike, the source gives them in different places.

As usually defined, the Kd is the constant that tells how readily two partners part at equilibrium. By solubility is commonly meant the concentration that dissolves in the medium under given conditions.

As for `Cn1cc(-c2c(O)cccc2Oc2ccccc2)c2cc[nH]c2c1=O` [Example 3, 4-(2-hydroxy-6-phenoxyphenyl)-6-methyl-1,6-dihydro-7H-pyrrolo[2,3-c]pyridin-7-one], the Kd at BRD4 BD2 was at most 10 nM. Further, the “Intrinsic clearance, % Liver Blood Flow” value in the data set with human liver hepatocytes came out at 86 % Liver Blood Flow. The solubility at 5 hr is above 10000 µg/mL in data set [1] (setting [4]); above 10000 µg/mL in data set [1] (setting [5]); above 10000 µg/mL in data set [1] (setting [6]); 1000 to 10000 µg/mL in data set [1] (setting [7]); above 10000 µg/mL in data set [1] (setting [8]). In addition, the half-life at 0.5 μM in data set [2] is above 120 min. For the same molecule, the “decomposition at all pH values tested” value in data set [3] is below 5%. Moreover, the “pH 4.0 % decomposition” value in data set [3] is reported as 0%. The “pH 5.5 % decomposition” value in data set [3] came to 0%. Moreover, the “pH 7.4 % decomposition” value in data set [3] was 0%.

Take `Cn1cc(-c2cccc(O)c2Oc2ccccc2)c2cc[nH]c2c1=O` [Example 1, 4-(3-hydroxy-2-phenoxyphenyl)-6-methyl-1,6-dihydro-7H-pyrrolo[2,3-c]pyridin-7-one]: at BRD4 BD2, the Kd was at most 10 nM. Further, the “BRD4(2) % Ctrl” value on BRD4 BD2 (single point, screened at 30 times Kd, lower numbers indicate stronger hits) is 2.6 % Ctrl. Further, the “Intrinsic clearance, % Liver Blood Flow” value in the data set on human liver hepatocytes was 83 % Liver Blood Flow. The solubility at 5 hr in data set [1] (setting [4]) was 1000 to 10000 µg/mL; in data set [1] (setting [5]), above 10000 µg/mL; in data set [1] (setting [6]) it was 1000 to 10000 µg/mL; in data set [1] (setting [7]), 1000 to 10000 µg/mL; in data set [1] (setting [8]) it was 1000 to 10000 µg/mL. In data set [2], the half-life at 0.5 μM was above 120 min. The “decomposition at all pH values tested” value in data set [3] is recorded as below 5%. Also, in data set [3], the “pH 4.0 % decomposition” value is 0%. Moreover, in data set [3], the “pH 5.5 % decomposition” value turned out to be 0%. Further, the “pH 7.4 % decomposition” value in data set [3] worked out at 0%.
